From US9085520B2, “Composition for treating diabetes and metabolic diseases and a preparation method thereof” (KAOHSIUNG MEDICAL UNIVERSITY, priority 2011, dated 2015)
Entries after “also recorded” stand apart in the source; their conditions may differ.

What was measured:
3T3-L1 adipocytes [1] = assay: glucose consumption (remaining glucose) in culture medium of 3T3-L1 adipocytes; assay type: cell-based; conditions: for remaining glucose concentration in culture medium after 24 hours: culture medium of 3T3-L1 adipocytes after 24 hours, means ± SD, N = 3; for glucose absorption activity of adipocytes 3T3-L1 (anti-hyperglycemic ability): FIG. 1, medium glucose 300 mg/dl, remaining glucose after 24 hours
Description: After precursor adipocytes 3T3-L1 were induced as the matured adipocytes, culture medium with glucose (concentration of 300 mg/dl) and drugs were added, and the concentration of the remaining glucose in the culture medium were measured after 24 hours.
Adipose tissues are major sites for postprandial glucose uptake. Therefore, in vitro anti-diabetic screening model based on measuring glucose consumption after 24 hours in culture medium of 3T3-L1 adipocytes was developed. […] Accordingly, 60 chalcone derivatives with and without substitutions on A-ring were examined in our developed model. […] Structure-activity relationship (SAR) analyses data are also determined.

3T3-L1 adipocytes [2] = assay: adipocyte death / toxicity to adipocytes; conditions: 30 μg/ml, matured 3T3-L1 adipocytes, 24 hours
C57BL/6 mice [3] = assay: oral glucose tolerance test (OGTT) in HF diet mice; assay type: in vivo; conditions: 7 weeks
Description: (§1) The numbers of mice in Experiment 4 were the same as in Experiment 3, and mice were divided as four groups, “control”, “HF diet”, “HF diet+pioglitazone” and “HF diet+compound 12” groups.
(§2) The method and conditions for performing Experiment 7 were similar to those in Experiments 3 and 4, wherein C57BL/6 mice were grouped as five groups, (a) “Control” group (n=6), (b) “HF diet” group (n=7); (c) “HF diet+pioglitazone” group (oral dosage: 6.75 mg/kg/day pioglitazone, n=8); (d) “HF diet+compound 26×1” group: the mice were fed with high-fat-percentage feed (at least 40% fat) for a long-term period for inducing obesity and metabolic syndromes and simultaneously administered with compound 26 (oral dosage: 6.75 mg/kg/day, n=11); and (e) “HF diet+compound 26×5” group (oral dosage: 33.75 mg/kg/day compound 26, n=12).

C57BL/6 mice [4] = assay: body weight gain of high-fat diet induced obesity mice; assay type: in vivo; conditions: HF diet C57BL/6 mice
Excerpt: (§3) Please refer to FIG. 2, C57BL/6 mice were grouped as four groups. (a) “Control” group (normal healthy animal group): the mice were fed with normal feed. (b) “High-fat (HF) diet” group (unhealthy negative control group): the mice were fed with high-fat-percentage feed (at least 40% fat) for a long-term period for inducing obesity and metabolic syndromes. (c) “HF diet+pioglitazone” group (clinical administration control group): the mice were fed with high-fat-percentage feed (at least 40% fat) for a long-term period for inducing obesity and metabolic syndromes and simultaneously administered with the clinically anti-diabetes TZD, pioglitazone (oral dosage: 6.75 mg/kg/day). […] The number of mice in the groups (a) to (d) were 5, 5, 6 and 13 respectively.
as §2

3T3-L1 adipocytes [5] = assay: lipid droplet formation in 3T3-L1 adipocytes (Oil-Red O staining); assay type: cell-based; conditions: insulin 3.2×10^−7 M, RSZ, PIO, chalcone derivatives 30 μg/ml, DMEM 25 mM D-glucose, 4 days
Description: After two days of differentiation, 3T3-L1 cells were treated without (control) or with insulin (3.2×10^−7 M), RSZ (30 μg/ml), PIO (30 μg/ml), and chalcone derivatives (30 μg/ml) in DMEM containing 25 mM D-glucose. After 4 days, lipid droplets were observed by Oil-Red O staining (data not shown).

C57BL/6 mice [6] = assay: fasting blood glucose level of HF diet mice; assay type: in vivo; conditions: oral 6.75 mg/kg/day, 7 weeks, FIG. 3(a)
Excerpt: as §3, §1

Question: With `COc1ccc(/C=C/C(=O)c2ccc(O)cc2O)cc1` [Compound 5, (E)-1-(2,4-dihydroxyphenyl)-3-(4-methoxyphenyl)-prop-2-en-1-one] as the molecule, how does the “remaining glucose concentration in culture medium after 24 hours” value (“remaining glucose concentration” for short) (3T3-L1 adipocytes [1]; 30 μg/ml, control 310 ± 4.0) read?
Answer: The value was 248 ± 0.4 mg/dL.

Question: And the “glucose absorption activity of adipocytes 3T3-L1 (anti-hyperglycemic ability)” value (“glucose absorption activity” below) (3T3-L1 adipocytes [1]; 30 μg/ml)?
Answer: The value was “not significantly better than that in compound 9”.

Question: And the “adipocyte death / toxicity to adipocytes” value (3T3-L1 adipocytes [2])?
Answer: The value was “lead to adipocyte death; also recorded: toxic”.

Question: Which results are given for `COc1cccc(/C=C/C(=O)c2ccccc2O)c1` [Compound 4, (E)-1-(2-hydroxyphenyl)-3-(3-methoxyphenyl)prop-2-en-1-one]?
Answer: remaining glucose concentration in culture medium after 24 hours (3T3-L1 adipocytes [1]; 30 μg/ml, control 310 ± 4.0): 264 ± 7.8 mg/dL; adipocyte death / toxicity to adipocytes (3T3-L1 adipocytes [2]): non-toxic

Question: How did the “remaining glucose concentration” value (3T3-L1 adipocytes [1]; 30 μg/ml, control 310 ± 4.0) turn out when `COc1cccc(/C=C/C(=O)c2ccc(O)cc2O)c1` [Compound 6, (E)-1-(2,4-dihydroxyphenyl)-3-(3-methoxyphenyl)-prop-2-en-1-one] was run?
Answer: Its value is 274 ± 12.1 mg/dL.

Question: And the “glucose absorption activity” value (3T3-L1 adipocytes [1]; 30 μg/ml)?
Answer: Its value is “not significantly better than that in compound 9”.

Question: What about the “adipocyte death / toxicity to adipocytes” value (3T3-L1 adipocytes [2]) of the same molecule?
Answer: The value was “lead to adipocyte death; also recorded: toxic”.

Question: Which results are given for `O=C(/C=C/c1ccccc1)c1ccccc1` [Compound 9, (E)-chalcone]?
Answer: remaining glucose concentration in culture medium after 24 hours (3T3-L1 adipocytes [1]; 30 μg/ml, control 310 ± 4.0): 253 ± 9.9 mg/dL; glucose absorption activity of adipocytes 3T3-L1 (anti-hyperglycemic ability) (3T3-L1 adipocytes [1]; 30 μg/ml): relatively similar; adipocyte death / toxicity to adipocytes (3T3-L1 adipocytes [2]): non-toxic

Question: For `O=C(/C=C/c1ccccc1)c1ccc(O)cc1O` [Compound 2, (E)-1-(2,4-dihydroxyphenyl)-3-phenylprop-2-en-1-one], which “remaining glucose concentration” value (3T3-L1 adipocytes [1]; 30 μg/ml, control 310 ± 4.0) is on record?
Answer: Its value is 273 ± 2.9 mg/dL.

Question: What about the “glucose absorption activity” value (3T3-L1 adipocytes [1]; 30 μg/ml) of the same molecule?
Answer: Its value is “not significantly better than that in compound 9”.

Question: What about the “adipocyte death / toxicity to adipocytes” value (3T3-L1 adipocytes [2]) of the same molecule?
Answer: The value was “lead to adipocyte death; also recorded: toxic”.

Question: With `O=C(/C=C/c1ccc(OCc2ccccc2)cc1)c1cc(Br)ccc1O` [Compound 23, (E)-3-(4-(benzyloxy)phenyl)-1-(5-bromo-2-hydroxyphenyl)prop-2-en-1-one] as the molecule, how does the “remaining glucose concentration” value (3T3-L1 adipocytes [1]; 30 μg/ml, control 310 ± 4.0) read?
Answer: The value was 256 ± 1.3 mg/dL.

Question: For `COc1ccc(/C=C/C(=O)c2ccccc2O)cc1` [Compound 1, (E)-1-(2-hydroxyphenyl)-3-(4-methoxyphenyl)prop-2-en-1-one], which “remaining glucose concentration” value (3T3-L1 adipocytes [1]; 30 μg/ml, control 310 ± 4.0) is on record?
Answer: The value was 283 ± 21.4 mg/dL.

Question: And the “adipocyte death / toxicity to adipocytes” value (3T3-L1 adipocytes [2])?
Answer: The value was “non-toxic”.

Question: How did the “glucose intolerance / insulin resistance” value (C57BL/6 mice [3]; HF diet C57BL/6 mice, oral dosage 6.75 or 33.75 mg/kg/day, FIG. 6) turn out when `COc1ccc(/C=C/C(=O)c2ccccc2I)cc1` [Compound 26, (E)-1-(2-iodophenyl)-3-(4-methoxyphenyl)prop-2-en-1-one] was run?
Answer: Its value is “significantly prevents obesity and insulin resistance; also recorded: inhibition of glucose intolerance”.

Question: And the “glucose absorption activity” value (3T3-L1 adipocytes [1]; 30 μg/ml)?
Answer: The value was “best anti-hyperglycemic ability”.

Question: And the “body weight / obesity” value (C57BL/6 mice [4]; oral dosage 6.75 or 33.75 mg/kg/day, FIG. 5)?
Answer: The value was “significantly prevents obesity; also recorded: inhibited”.

Question: And the “formation of lipid droplets” value (3T3-L1 adipocytes [5])?
Answer: Its value is “significantly prevent the formation of lipid droplets”.

Question: What about the “adipocyte death / toxicity to adipocytes” value (3T3-L1 adipocytes [2]) of the same molecule?
Answer: The value was “didn't result in adipocyte death”.

Question: What does the source list for “Insulin: insulin, positive control in the adipocyte tests”?
Answer: glucose consumption (3T3-L1 adipocytes [1]; Experiment 6, insulin 3.2×10^−7 M, RSZ, PIO 30 μg/ml, DMEM 25 mM D-glucose): promote glucose consumption; remaining glucose concentration in culture medium after 24 hours (3T3-L1 adipocytes [1]; insulin 3.2 × 10^−17M): 294 ± 6.3 mg/dL; formation of lipid droplets (3T3-L1 adipocytes [5]): increase the lipid droplets in adipocytes

Question: For `O=C(/C=C/c1ccc(OCc2ccccc2)cc1)c1ccc(O)cc1O` [Compound 3, (E)-3-(4-(benzyloxy)phenyl)-1-(2,4-dihydroxyphenyl)prop-2-en-1-one], which “remaining glucose concentration” value (3T3-L1 adipocytes [1]; 30 μg/ml, control 310 ± 4.0) is on record?
Answer: The value was 249 ± 12.2 mg/dL.

Question: What about the “glucose absorption activity” value (3T3-L1 adipocytes [1]; 30 μg/ml) of the same molecule?
Answer: Its value is “not significantly better than that in compound 9”.

Question: And the “adipocyte death / toxicity to adipocytes” value (3T3-L1 adipocytes [2])?
Answer: Its value is “lead to adipocyte death; also recorded: toxic”.

Question: How did the “remaining glucose concentration” value (3T3-L1 adipocytes [1]; 30 μg/ml, control 310 ± 4.0) turn out when `O=C(/C=C/c1ccccc1)c1ccc(I)cc1` [Compound 58, (E)-1-(4-iodophenyl)-3-phenylprop-2-en-1-one] was run?
Answer: Its value is 292 ± 5.3 mg/dL.

Question: How did the “remaining glucose concentration” value (3T3-L1 adipocytes [1]; 30 μg/ml, control 310 ± 4.0) turn out when `COc1cccc(/C=C/C(=O)c2ccc(I)cc2)c1` [Compound 60, (E)-1-(4-iodophenyl)-3-(3-methoxyphenyl)prop-2-en-1-one] was run?
Answer: The value was 274 ± 22.5 mg/dL.

Question: For `COc1cccc(/C=C/C(=O)c2cc(Br)ccc2O)c1` [Compound 21, (E)-1-(5-bromo-2-hydroxyphenyl)-3-(3-methoxyphenyl)prop-2-en-1-one], which “remaining glucose concentration” value (3T3-L1 adipocytes [1]; 30 μg/ml, control 310 ± 4.0) is on record?
Answer: Its value is 260 ± 3.3 mg/dL.

Question: Which “remaining glucose concentration” value (3T3-L1 adipocytes [1]; 30 μg/ml, control 310 ± 4.0) does the source give for `COc1cccc(/C=C/C(=O)c2ccccc2Br)c1` [Compound 13, (E)-1-(2-bromophenyl)-3-(3-methoxyphenyl)prop-2-en-1-one] here?
Answer: The value was 249 ± 5.2 mg/dL.

Question: For `O=C(/C=C/c1ccc(O)cc1)c1ccccc1O` [Compound 24, (2E)-1-(2-hydroxyphenyl)-3-(4-hydroxyphenyl)-2-propen-1-one], which “remaining glucose concentration” value (3T3-L1 adipocytes [1]; 30 μg/ml, control 310 ± 4.0) is on record?
Answer: Its value is 267 ± 3.4 mg/dL.

Question: What does the source list for `COc1cccc(/C=C/C(=O)c2ccc(Cl)cc2)c1` [Compound 15, (E)-1-(4-chlorophenyl)-3-(3-methoxyphenyl)prop-2-en-1-one]?
Answer: remaining glucose concentration in culture medium after 24 hours (3T3-L1 adipocytes [1]; 30 μg/ml, control 310 ± 4.0): 272 ± 22.4 mg/dL; glucose absorption activity of adipocytes 3T3-L1 (anti-hyperglycemic ability) (3T3-L1 adipocytes [1]; 30 μg/ml): not significantly different

Question: Which results are given for `COc1ccc(/C=C/C(=O)c2ccccc2Br)cc1` [Compound 12, (E)-1-(2-bromophenyl)-3-(4-methoxyphenyl)prop-2-en-1-one]?
Answer: fasting blood glucose level (C57BL/6 mice [6]): significantly inhibit the increase of blood glucose level; also recorded: inhibition of the blood glucose level; glucose intolerance (OGTT) (C57BL/6 mice [3]; HF diet mice, oral 6.75 mg/kg/day, FIG. 3(b), 6.75 mg/kg/day): significantly inhibit the occurrence of glucose intolerance; also recorded: inhibition of glucose intolerance; glucose absorption activity of adipocytes 3T3-L1 (anti-hyperglycemic ability) (3T3-L1 adipocytes [1]; 30 μg/ml): best anti-hyperglycemic ability; also recorded: best activity; body weight gain (C57BL/6 mice [4]; oral dosage 6.75 mg/kg/day, FIG. 2): significantly inhibit the body weight gain; also recorded: inhibited; formation of lipid droplets (3T3-L1 adipocytes [5]): significantly prevent the formation of lipid droplets; adipocyte death / toxicity to adipocytes (3T3-L1 adipocytes [2]): didn't result in adipocyte death

Question: With `COc1ccc(/C=C/C(=O)c2cc(Cl)ccc2O)cc1` [Compound 37, (E)-1-(5-chloro-2-hydroxyphenyl)-3-(4-methoxyphenyl)prop-2-en-1-one] as the molecule, how does the “remaining glucose concentration” value (3T3-L1 adipocytes [1]; 30 μg/ml, control 310 ± 4.0) read?
Answer: Its value is 282 ± 16.4 mg/dL.
